In US4322346A, “5H-2,3-Benzodiazepine derivatives” (priority 1978, dated 1982):

Legend:
Type in all cases: in vivo
[1] = test system: mice; assay: General behaviour of mice; conditions: 100 mg/kg i.p. and, resp., 200 mg/kg p.o., SMA = spontaneous motor activity
Method: These compounds decrease the spontaneous motor activity and potentiate the effect of narcotics.
(§1) The tests were performed on mice. In the examination of the general behaviour the animals were treated intraperitoneally with 100 mg/kg or orally with 200 mg/kg of the compound in question. The fighting behaviour test was performed according to the method of Tedeschi et al. (J. Pharm. Exp. Ther. 25, 28 /1959/). The observations concerning the general behaviour of the animals and the ED50 values obtained in the fighting behaviour test are summarized in Table 1. In these tests 1-(3,4-dimethoxyphenyl)-4-methyl-5-ethyl-7,8-dimethoxy-5H-2,3-benzodiazepine (Grandaxin) was applied as reference substance.

[2] = test system: mice; assay: Narcosis potentiating activity on mice (sodium hexobarbital narcosis); conditions: for Narcosis potentiating activity on mice, Relative activity: relative to Grandaxin (1.0)
Method: When studying the narcosis potentiating effect, the benzodiazepine compounds were administered to mice in oral dosages of 12.5, 25, 50 or 100 mg/kg, and 30 minutes later 50 mg/kg of sodium hexobarbital were injected intravenously into the animals. The percentage prolongation of the narcosis period, compared to the value observed in the control group treated with sodium hexobarbital alone, was calculated. In these tests Grandaxin was applied again as reference substance.

[3] = test system: mice; assay: Fighting behaviour test on mice (method of Tedeschi et al.); conditions: for ED50: Mus musculus, po, mice; for "Fighting behaviour" test on mice, relative activity: relative to Grandaxin (1.0), from ED50 p.o.
Method: as §1

[4] = Mus musculus, po, 25 mg/kg p.o., 30 minutes before 50 mg/kg sodium hexobarbital i.v., prolongation vs control, read-out: Narcosis potentiating activity on mice, Increase, %
[5] = Mus musculus, po, 50 mg/kg p.o., 30 minutes before 50 mg/kg sodium hexobarbital i.v., prolongation vs control, read-out: Narcosis potentiating activity on mice, Increase, %

| SMILES | General behaviour [1] | Narcosis potentiating activity on mice, Relative activity ([2]; 12.5 mg/kg p.o.) | Narcosis potentiating activity on mice, Relative activity ([2]; 25 mg/kg p.o.) | change in vivo at 12.5 mg/kg ([2]; Mus musculus, po, 12.5 mg/kg p.o., 30 minutes before 50 mg/kg sodium hexobarbital i.v., prolongation vs control, read-out: Narcosis potentiating activity on mice, Increase, %) | change in vivo at 25 mg/kg [2, 4] | ED50 [3] | "Fighting behaviour" test on mice, relative activity [3] | Narcosis potentiating activity on mice, Relative activity ([2]; 50 mg/kg p.o.) | change in vivo at 50 mg/kg [2, 5] | Narcosis potentiating activity on mice, Relative activity ([2]; 100 mg/kg p.o.) | change in vivo at 100 mg/kg ([2]; Mus musculus, po, 100 mg/kg p.o., 30 minutes before 50 mg/kg sodium hexobarbital i.v., prolongation vs control, read-out: Narcosis potentiating activity on mice, Increase, %) |
| --- | --- | --- | --- | --- | --- | --- | --- | --- | --- | --- | --- |
| COc1cc2c(cc1OC)C(c1cccc(C(F)(F)F)c1)=NN=C(C)C2 [Example 44, 1-(3-Trifluoromethyl-phenyl)-4-methyl-7,8-dimethoxy-5H-2,3-benzodiazepine] | Strong decrease of SMA | 8.82 | 3.63 | 150% | 294% | 22 mg/kg | 2.9 |  |  |  |  |
| COc1cc2c(cc1OC)C(c1ccco1)=NN=C(C)C2 [Example 45, 1-(2-Furyl)-4-methyl-7,8-dimethoxy-5H-2,3-benzodiazepine] | Decrease of SMA |  | 3.09 |  | 250% | 50 mg/kg | 1.3 |  |  |  |  |
| CCC1C(C)=NN=C(c2ccc(OC)cc2)c2cc(OC)c(OC)cc21 (centres unmarked) [Example 4, 1-(4-methoxyphenyl)-4-methyl-5-ethyl-7,8-dimethoxy-5H-2,3-benzodiazepine] | Decrease of SMA |  |  |  |  | 40 mg/kg | 1.6 | 2.17 | 248% |  |  |
| CCC(C)Oc1cc2c(cc1OC)C(c1ccc(OC)c(OC)c1)=NN=C(C)C2CC (centres unmarked) [Example 35, 1-(3,4-dimethoxyphenyl)-4-methyl-5-ethyl-7-sec.butoxy-8-methoxy-5H-2,3-benzodiazepine] | Decrease of SMA |  | 1.11 |  | 90% | 60 mg/kg | 1.1 | 1.52 | 173% | 3.26 | 780% |
